Reference: ChEMBL document CHEMBL1131784, “The design and synthesis of ALS inhibitors from pharmacophore models” (Bioorg Med Chem Lett, 1999)

What follows are compounds tested against T1, Acetolactate synthase, chloroplastic (Arabidopsis thaliana, UniProt P17597) (assay: Inhibitory activity against Acetolactate synthase (ALS) enzyme by using the rape-root growth method). Settings: not given.
T1 sequence (P17597 whole entry): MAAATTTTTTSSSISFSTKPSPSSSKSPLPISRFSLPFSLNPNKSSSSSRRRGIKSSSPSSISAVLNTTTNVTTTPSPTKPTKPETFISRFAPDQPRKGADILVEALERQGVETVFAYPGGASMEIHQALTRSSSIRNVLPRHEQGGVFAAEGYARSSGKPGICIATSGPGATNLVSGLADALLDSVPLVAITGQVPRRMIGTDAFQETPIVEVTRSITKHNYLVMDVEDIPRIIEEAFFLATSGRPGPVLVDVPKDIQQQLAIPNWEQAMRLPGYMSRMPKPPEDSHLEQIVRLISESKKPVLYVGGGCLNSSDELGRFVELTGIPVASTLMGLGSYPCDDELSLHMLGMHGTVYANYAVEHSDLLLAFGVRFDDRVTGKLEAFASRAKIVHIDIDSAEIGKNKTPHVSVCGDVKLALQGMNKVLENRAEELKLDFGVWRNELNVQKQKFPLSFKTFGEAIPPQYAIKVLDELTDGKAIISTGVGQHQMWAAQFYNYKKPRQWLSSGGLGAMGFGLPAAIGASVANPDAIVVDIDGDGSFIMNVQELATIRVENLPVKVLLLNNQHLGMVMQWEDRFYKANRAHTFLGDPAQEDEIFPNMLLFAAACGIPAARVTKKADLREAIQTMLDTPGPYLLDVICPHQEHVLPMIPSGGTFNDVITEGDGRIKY
For O=C(OCn1ccc(=O)[nH]c1=O)c1ccc(I)cc1, the IC50 was > 100 p.p.m. Work on O=C(OCn1ccc(=O)[nH]c1=O)c1ccc(Cl)cc1 yielded an IC50 of 51.29 p.p.m. Compound Cc1ccc(NS(=O)(=O)c2ccc(F)cc2)nc1 has an IC50 of 0.000152 M l-1. In the case of COc1cc(Cl)nc(NS(=O)(=O)c2ccc(F)cc2)n1, the IC50 is reported as 0.000111 M l-1. For Cc1cnc(NS(=O)(=O)c2cc(Cl)ccc2Cl)s1, the IC50 was > 0.000309 M l-1. O=C(OCn1ccc(=O)[nH]c1=O)c1ccc(F)cc1 gave an IC50 of 55.86 p.p.m. Compound Cc1ccnc(NS(=O)(=O)c2ccccc2[N+](=O)[O-])n1 has an IC50 of 0.000287 M l-1. Work on O=C(OCn1ccc(=O)[nH]c1=O)c1ccc(Br)cc1 yielded an IC50 of 55.38 p.p.m. In the case of COc1ccc(C(=O)OCn2ccc(=O)[nH]c2=O)cc1, the IC50 is reported as > 100 p.p.m. With O=C(OCn1ccc(=O)[nH]c1=O)c1ccccc1 the IC50 was 55.36 p.p.m. For COc1ccccc1C(=O)OCn1ccc(=O)[nH]c1=O, the IC50 was > 100 p.p.m. O=C(OCn1ccc(=O)[nH]c1=O)c1ccc([N+](=O)[O-])cc1 was tested, and the IC50 was > 100 p.p.m. Work on Cc1cccc(C(=O)OCn2ccc(=O)[nH]c2=O)c1 yielded an IC50 of 16.04 p.p.m. For O=C(OCn1ccc(=O)[nH]c1=O)c1c(Cl)cc(C(F)(F)F)cc1Cl, the IC50 was > 100 p.p.m.

Same assay, conditions: read-out: IC50
Cc1ccnc(NS(=O)(=O)c2cc(Cl)ccc2Cl)n1 was tested, and the IC50 was 97.2 µM. In the case of Cc1ccnc(NS(=O)(=O)c2ccc(Br)cc2)n1, the IC50 is reported as 58.9 µM. Cc1ccnc(NS(=O)(=O)c2ccc(F)cc2)n1 gave an IC50 of 38.9 µM. O=S(=O)(Nc1nccs1)c1cc(Cl)ccc1Cl was tested, and the IC50 was 84.7 µM. With Cc1cc(C)nc(NS(=O)(=O)c2cc(Cl)ccc2Cl)n1 the IC50 was 33 µM.
